Measurements taken from US20190369107A1, “ZWITTERIONIC NANOPARTICLES” (priority 2017, published 2019).
“Also recorded” adds a separate entry of the source.

Test system: A549 cells
Test: Toxicity tests of QDQRs on A549 cells (Cellomics Array Scan, Hoechst 33342 / MitoTracker Deep Red)
Assay type: cell-based, human
Conditions: 16 h incubation
Procedure: The culture medium consisted of 10% FCS in DMEM with 1% PenStrep and sodium pyruvate in each case. The incubation of the cells always took place at 37° C. and a CO2 content of 5%.
The zwitterionic Quantum Dots/Quantum Rods (QDQRs) nanoparticles were examined in various in vitro experiments with regard to their toxicity and non-specific cell uptake. Yellow-emitting QDQRs comprising the short- and long-chain zwitterionic ligand (QDQRs-17a and QDQRs-17b) were used for the studies to investigate a possible influence of the chain length of the ligand on the interactions of the QDQRs with cells. A549 cells were used for both toxicity and cell uptake studies. A549 cells are human basal epithelial cells derived from an adenocarcinoma of the lung which have been cultured as a cell line.
The toxicity of the zwitterionic QDQRs-17a and QDQRs-17b was tested using the Cellomics Array Scan. For the toxicity tests, A549 cells were plated on a 96-well plate and incubated with QDQR solutions in a concentration range of 25 to 500 nM. Cadmium chloride, which was used in a concentration range from 25 to 1,000 μM, was used as the positive control. The increase in the cadmium chloride concentration by a factor of 1,000 is due to the fact that a single QDQR of the tested samples contains about 8,200 cadmium atoms. Assuming that the totality of the nanoparticles dissolve and release the cadmium contained in them, the lowest concentration of 25 nM QDQRs used would correspond to a concentration of 205 μM cadmium chloride. After an incubation period of 16 hours, the cells were blended with a staining solution consisting of the cell nucleus dye Hoechst 33342 and the mitochondrial dye MitoTracker® Deep Red FM and then fixed with formaldehyde solution. The 96-well plates were then read out with the Cellomics Array Scan. A software was used to automatically determine the parameters number of cells, cell nucleus intensity and cell nucleus size using the intensity of the dye by Hoechst, and the transmembrane potential of the mitochondria on the basis of the mitochondrial dye. In addition, microscopic images of the cells were taken to control the number of cells and cell morphology.
For the toxicity tests, A549 cells were plated in culture medium on a 96-well plate (10,000 cells per well) and incubated overnight. When the medium had been sucked off, the samples to be tested (diluted with culture medium, 100 μL per well) were applied in different concentrations and incubated for 16 hours. The samples were then removed and the cells were mixed with 100 μL staining solution (final concentration: 75 nM MitoTracker® Deep Red and 2.5 μg/ml Hoechst 33342 in DMEM with 10% FCS) and incubated for a further 30 minutes. To fix the cells, the staining solution was removed and 100 μL of a warm fixing solution (3.7% formaldehyde in Dulbecco's PBS, DPBS) were added. After 20 minutes, the fixing solution was sucked off and washed twice with DPBS before the samples were measured on the Cellomics Array Scan.

## [Cl][Cd][Cl] [cadmium chloride]
Cadmium chloride at 100 μM or more
  morphological changes of the cells or cell nuclei in microscopic images: get globular
Over the tested concentration range, FIG. 1 A
  number of cells per well: decreases significantly; also recorded: decreases noticeably
Over the tested concentration range, FIG. 1 B
  cell nucleus intensity (Hoechst 33342): decreases significantly
Over the tested concentration range, FIG. 1 C
  cell nucleus size: decreases significantly
Over the tested concentration range, FIG. 1 D
  transmembrane potential of the mitochondria: first increases in the concentration range from 50 to 100 μM and then decreases again
Positive control tested 25 to 1,000 μM
  concentration at which a toxic effect on the cells is shown: ≥ 100 µM
